Like-named read-outs stand apart in the source and are kept apart here.
Tests used:
Fms kinase = Fms kinase (Homo sapiens (Human), UniProt P07333); experiment: Fms kinase biochemical activity assay (AlphaScreen, biotin-(E4Y)10 phosphorylation)
Procedure, shortened: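 Recombinant human Fms phosphorylating 30 nM biotin-(E4Y)10 with 100 μM ATP (1 ng/well enzyme) in Hepes pH 7.5 buffer with Mg2+/Mn2+, 5% DMSO, 20 min at 30 °C. Phosphotyrosine detected by AlphaScreen streptavidin donor/PY20 acceptor beads; IC50 from signal versus compound concentration.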

c-Kit kinase = c-Kit kinase (Homo sapiens (Human), UniProt P10721); experiment: c-Kit kinase biochemical activity assay (AlphaScreen, biotin-(E4Y)10 phosphorylation)
Procedure: In one assay the biochemical activity IC50 values are determined with respect to inhibition of c-Kit kinase activity, where inhibition of phosphorylation of a peptide substrate is measured as a function of compound concentration. Compounds to be tested are dissolved in DMSO to a concentration of 20 mM. These are diluted 30 μL into 120 μL of DMSO (4 mM) and 1 μL is added to an assay plate. These are then serially diluted […] (50 μL to 100 μL DMSO) for a total of 8 points. Plates are prepared such that each kinase reaction is 20 μL in 1× kinase buffer (25 mM HEPES, pH 7.5, 2 mM MgCl2, 2 mM MnCl2, 0.01% Tween-20, 1 mM DTT, 0.01% BSA), 5% DMSO and 100 μM ATP. Substrate is 30 nM biotin-(E4Y)10 (Millipore). C-kit kinase (obtained from Millipore (#14-559) or is prepared as described in U.S. Patent Application Publication Number 2009/0076046, the disclosure of which is hereby incorporated by reference as it relates to this assay) is at 0.75 ng per sample. After incubation of the kinase reaction for 1 hour at room temperature, 5 μL of donor beads (Streptavidin coated beads (Perkin Elmer Life Science) final concentration 10 μg/mL) in stop buffer (25 mM Hepes pH 7.5, 100 mM EDTA, 0.01% BSA) is added, the sample is mixed and incubated for 20 minutes at room temperature before adding 5 μL of acceptor beads (PY20 coated beads (Perkin Elmer Life Science) final concentration 10 μg/mL) in stop buffer. The samples are incubated for 60 minutes at room temperature and the signal per well is read on Envision reader. […] The signal vs. compound concentration is used to determine the IC50.

CYP1A2 = CYP1A2 (Homo sapiens (Human), UniProt P05177); experiment: CYP enzyme inhibition, fluorescent substrate; details: human, 15 min
Procedure: (§1) CYP (Cytochrome P450) enzymes are the major drug metabolizing enzymes present in the liver. The inhibition of CYP enzyme activity (IC50) for each of CYP1A2, CYP2C19, CYP2C9, CYP2D6, CYP3A4(BFC) and CYP3A4(BQ) is determined for compounds, where inhibition of metabolism of a known substrate leads to a decrease in the fluorescence of the metabolized product. The fluorescence of the product is monitored as a function of compound concentration.
(§2) Compounds are dissolved in DMSO to a concentration of 100 mM. These are diluted 1 μL into 82 μL of acetonitrile. An 11 μL aliquot of this solution is then added to 204 μL of cofactor mix (1.3% NADPH Regeneration system Solution A, 1.04% NADPH Regeneration system Solution B from BD Biosciences, 5% acetonitrile and 0.05% DMSO). These are then serially diluted 1:1 (160 μL to 160 μL co-factor mix) for a total of 10 points. A 10 μL aliquot of this final mixture is dispensed into 384 well assay plates and incubated for 10 minutes at 37° C. Enzyme and substrate mix (10 μL; […] CYP1A2/5 μM CEC; 1.0 μmol CYP2C9/75 μM MFC; […] CYP2C19/25 μM CEC; 1.5 μmol CYP2D6/1.5 μM AMMC; 1.0 μmol CYP3A4/50 μM BFC; or 1.0 μmol CYP3A4/40 μM BQ) is added to these assay plates. Assay plates are incubated at 37° C. (CYP1A2-15 min; CYP2C9-45 min; CYP2C19, 2D6 and 3A4-30 min) and read in a Tecan Safire 2 plate reader (CYP1A2, 2C19 and 3A4 409 ex/460 em; CYP2C9 and 2D6409 ex/530 em). The signal versus compound concentration is used to determine the IC50. The enzymes and substrates for this assay are obtained from BD Biosciences.

CYP2C19 = CYP2C19 (Homo sapiens (Human), UniProt P33261); experiment: CYP enzyme inhibition, fluorescent substrate
Procedure: as §1, §2

CYP2C9 = CYP2C9 (Homo sapiens (Human), UniProt P11712); experiment: CYP enzyme inhibition, fluorescent substrate
Procedure: as §1, §2

CYP2D6 = CYP2D6 (Homo sapiens (Human), UniProt P10635); experiment: CYP enzyme inhibition, fluorescent substrate; details: read-out: Cyp IC50 (μM) 2D6
Procedure: as §1, §2

CYP3A4(BFC) = CYP3A4(BFC) (Homo sapiens (Human), UniProt P08684); experiment: CYP enzyme inhibition, fluorescent substrate
Procedure: as §1, §2

CYP3A4(BQ) = CYP3A4(BQ) (Homo sapiens (Human), UniProt P08684); experiment: CYP enzyme inhibition, fluorescent substrate
Procedure: as §1, §2

[1] = read-out: Biochemical activity (IC50 μM) Fms
[2] = read-out: Cyp IC50 (μM) 3A4(BFC), BFC substrate
[3] = read-out: Cyp IC50 (μM) 3A4(BQ), BQ substrate
[4] = human, CYP2C9 enzyme (BD Biosciences), 45 min

c-Kit kinase, sequence (P10721 26-976): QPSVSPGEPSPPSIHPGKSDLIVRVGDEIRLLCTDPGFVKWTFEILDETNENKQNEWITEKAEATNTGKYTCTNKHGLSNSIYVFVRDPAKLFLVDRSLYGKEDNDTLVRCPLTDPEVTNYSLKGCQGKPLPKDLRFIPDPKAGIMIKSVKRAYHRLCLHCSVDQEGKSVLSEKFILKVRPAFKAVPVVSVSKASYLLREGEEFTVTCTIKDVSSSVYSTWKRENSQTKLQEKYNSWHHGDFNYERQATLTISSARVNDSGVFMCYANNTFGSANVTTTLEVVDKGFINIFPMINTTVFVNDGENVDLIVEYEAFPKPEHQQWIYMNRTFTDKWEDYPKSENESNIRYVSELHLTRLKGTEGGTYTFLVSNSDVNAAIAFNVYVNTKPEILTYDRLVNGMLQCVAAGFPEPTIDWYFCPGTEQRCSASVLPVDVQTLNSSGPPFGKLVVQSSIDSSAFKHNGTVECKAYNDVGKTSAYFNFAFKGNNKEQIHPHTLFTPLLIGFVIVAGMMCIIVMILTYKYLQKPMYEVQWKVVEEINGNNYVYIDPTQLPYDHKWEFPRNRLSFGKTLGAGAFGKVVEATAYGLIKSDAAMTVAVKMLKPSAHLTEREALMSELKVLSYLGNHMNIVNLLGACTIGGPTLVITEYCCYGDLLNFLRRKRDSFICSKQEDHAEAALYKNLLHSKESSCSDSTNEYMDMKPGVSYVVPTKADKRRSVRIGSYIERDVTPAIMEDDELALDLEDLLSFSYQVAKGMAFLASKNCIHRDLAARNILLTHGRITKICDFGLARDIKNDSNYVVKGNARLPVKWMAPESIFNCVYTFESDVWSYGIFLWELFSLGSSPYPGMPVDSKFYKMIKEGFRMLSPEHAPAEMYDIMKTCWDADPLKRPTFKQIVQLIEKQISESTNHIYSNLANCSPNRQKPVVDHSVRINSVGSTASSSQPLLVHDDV
CYP3A4(BQ), sequence (P08684 whole entry): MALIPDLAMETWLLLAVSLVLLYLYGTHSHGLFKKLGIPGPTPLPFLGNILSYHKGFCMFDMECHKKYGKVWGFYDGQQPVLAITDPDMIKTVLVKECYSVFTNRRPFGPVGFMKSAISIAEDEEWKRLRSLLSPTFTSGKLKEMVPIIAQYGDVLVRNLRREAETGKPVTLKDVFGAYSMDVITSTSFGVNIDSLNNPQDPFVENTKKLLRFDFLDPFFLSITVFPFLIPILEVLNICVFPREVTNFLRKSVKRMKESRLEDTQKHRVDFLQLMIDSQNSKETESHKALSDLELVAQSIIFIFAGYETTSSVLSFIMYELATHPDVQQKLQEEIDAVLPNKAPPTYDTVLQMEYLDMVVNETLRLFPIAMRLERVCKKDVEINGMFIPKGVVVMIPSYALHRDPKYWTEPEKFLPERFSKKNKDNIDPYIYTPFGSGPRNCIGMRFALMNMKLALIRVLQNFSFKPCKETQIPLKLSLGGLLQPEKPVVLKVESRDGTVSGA
CYP3A4(BFC), sequence (P08684 whole entry): as above
CYP2C19, sequence (P33261 whole entry): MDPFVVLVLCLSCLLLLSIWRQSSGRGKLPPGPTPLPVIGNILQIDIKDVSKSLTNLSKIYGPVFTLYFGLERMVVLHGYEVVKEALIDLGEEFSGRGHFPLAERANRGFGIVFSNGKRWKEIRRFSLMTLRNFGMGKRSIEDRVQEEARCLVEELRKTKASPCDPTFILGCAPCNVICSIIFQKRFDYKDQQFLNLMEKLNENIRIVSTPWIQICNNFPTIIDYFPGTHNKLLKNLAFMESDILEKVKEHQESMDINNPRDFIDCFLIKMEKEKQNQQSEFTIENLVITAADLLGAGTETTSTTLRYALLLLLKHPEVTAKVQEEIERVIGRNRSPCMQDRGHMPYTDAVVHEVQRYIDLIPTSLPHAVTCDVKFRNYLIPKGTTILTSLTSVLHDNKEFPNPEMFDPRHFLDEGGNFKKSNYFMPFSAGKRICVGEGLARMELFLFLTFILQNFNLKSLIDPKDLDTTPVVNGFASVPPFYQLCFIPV
CYP2D6, sequence (P10635 whole entry): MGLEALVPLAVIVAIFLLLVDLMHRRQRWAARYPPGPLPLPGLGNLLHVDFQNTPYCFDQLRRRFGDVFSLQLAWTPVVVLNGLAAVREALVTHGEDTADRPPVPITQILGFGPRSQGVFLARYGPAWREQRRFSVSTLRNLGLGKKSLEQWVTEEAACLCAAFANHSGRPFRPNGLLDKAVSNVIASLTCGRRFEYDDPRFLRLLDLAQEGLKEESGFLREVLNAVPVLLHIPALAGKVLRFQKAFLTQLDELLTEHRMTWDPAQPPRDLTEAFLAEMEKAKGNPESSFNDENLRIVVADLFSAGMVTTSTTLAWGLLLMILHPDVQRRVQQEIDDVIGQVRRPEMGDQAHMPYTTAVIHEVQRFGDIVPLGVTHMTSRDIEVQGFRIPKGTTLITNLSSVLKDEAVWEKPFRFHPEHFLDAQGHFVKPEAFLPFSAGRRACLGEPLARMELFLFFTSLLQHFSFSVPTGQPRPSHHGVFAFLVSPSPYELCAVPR
CYP1A2, sequence (P05177 whole entry): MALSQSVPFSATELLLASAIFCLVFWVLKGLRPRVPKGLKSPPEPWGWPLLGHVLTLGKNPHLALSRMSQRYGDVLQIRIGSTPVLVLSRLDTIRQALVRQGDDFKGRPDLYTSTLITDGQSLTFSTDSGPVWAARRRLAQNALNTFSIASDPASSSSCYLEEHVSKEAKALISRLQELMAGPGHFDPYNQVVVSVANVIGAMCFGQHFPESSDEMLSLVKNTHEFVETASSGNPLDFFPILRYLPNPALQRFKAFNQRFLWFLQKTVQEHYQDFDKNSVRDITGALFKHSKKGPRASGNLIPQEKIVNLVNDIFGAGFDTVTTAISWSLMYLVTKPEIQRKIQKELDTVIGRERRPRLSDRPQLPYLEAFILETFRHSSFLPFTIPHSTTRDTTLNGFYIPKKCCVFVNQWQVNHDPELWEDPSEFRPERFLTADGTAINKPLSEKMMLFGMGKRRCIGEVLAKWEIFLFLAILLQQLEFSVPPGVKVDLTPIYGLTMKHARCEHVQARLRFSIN
CYP2C9, sequence (P11712 whole entry): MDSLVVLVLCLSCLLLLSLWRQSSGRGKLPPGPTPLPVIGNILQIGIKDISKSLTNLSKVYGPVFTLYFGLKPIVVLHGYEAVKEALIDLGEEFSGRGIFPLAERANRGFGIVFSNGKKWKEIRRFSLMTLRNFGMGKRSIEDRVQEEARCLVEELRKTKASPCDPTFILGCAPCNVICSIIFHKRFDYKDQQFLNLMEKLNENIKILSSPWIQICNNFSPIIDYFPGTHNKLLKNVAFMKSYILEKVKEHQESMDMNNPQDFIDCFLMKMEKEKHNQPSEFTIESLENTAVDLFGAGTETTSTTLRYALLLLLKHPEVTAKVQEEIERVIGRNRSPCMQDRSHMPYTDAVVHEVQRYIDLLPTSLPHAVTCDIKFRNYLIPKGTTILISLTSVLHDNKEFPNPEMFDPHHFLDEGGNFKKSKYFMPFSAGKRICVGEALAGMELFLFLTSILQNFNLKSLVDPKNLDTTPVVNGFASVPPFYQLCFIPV
Fms kinase, sequence (P07333 20-972): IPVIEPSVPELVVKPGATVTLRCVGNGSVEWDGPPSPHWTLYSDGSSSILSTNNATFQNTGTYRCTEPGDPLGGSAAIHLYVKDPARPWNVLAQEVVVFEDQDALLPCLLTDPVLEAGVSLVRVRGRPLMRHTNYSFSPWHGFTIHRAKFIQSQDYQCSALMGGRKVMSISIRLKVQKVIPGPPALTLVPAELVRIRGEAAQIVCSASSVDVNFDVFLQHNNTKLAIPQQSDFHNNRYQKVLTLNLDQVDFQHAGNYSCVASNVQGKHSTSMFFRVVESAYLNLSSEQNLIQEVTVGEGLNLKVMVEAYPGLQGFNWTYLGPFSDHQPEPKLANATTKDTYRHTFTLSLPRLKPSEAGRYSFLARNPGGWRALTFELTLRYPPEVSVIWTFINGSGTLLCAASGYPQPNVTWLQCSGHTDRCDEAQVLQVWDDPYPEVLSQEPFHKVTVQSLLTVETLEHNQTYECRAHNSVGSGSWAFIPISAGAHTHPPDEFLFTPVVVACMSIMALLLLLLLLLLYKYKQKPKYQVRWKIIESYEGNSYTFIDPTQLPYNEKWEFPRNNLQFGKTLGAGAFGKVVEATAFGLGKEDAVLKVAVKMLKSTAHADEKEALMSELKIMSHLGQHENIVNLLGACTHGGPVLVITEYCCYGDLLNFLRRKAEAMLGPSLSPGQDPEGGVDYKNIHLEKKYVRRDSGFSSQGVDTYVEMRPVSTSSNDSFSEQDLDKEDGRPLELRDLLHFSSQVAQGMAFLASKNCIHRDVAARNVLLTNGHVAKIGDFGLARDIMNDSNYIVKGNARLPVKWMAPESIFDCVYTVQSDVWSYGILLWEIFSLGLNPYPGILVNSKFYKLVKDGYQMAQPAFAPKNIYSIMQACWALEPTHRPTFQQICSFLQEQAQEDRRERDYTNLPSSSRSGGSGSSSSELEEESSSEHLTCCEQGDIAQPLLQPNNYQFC

SMILES | Biochemical activity selectivity (Kit IC50/Fms IC50) (Fms kinase) | IC50 (Fms kinase; [1]) | IC50 (c-Kit kinase) | IC50 (CYP1A2) | IC50 (CYP2C19; read-out: Cyp IC50 (μM) 2C19) | IC50 (CYP2C9; read-out: Cyp IC50 (μM) 2C9) | IC50 (CYP2D6) | IC50 (CYP3A4(BFC)) | IC50 (CYP3A4(BQ)) | IC50 (CYP3A4(BFC); [2]) | IC50 (CYP3A4(BQ); [3]) | IC50 (Fms kinase; 100 μM ATP, read-out: Biochemical (IC50 μM) Fms) | IC50 (CYP2C9) | IC50 (CYP2C19) | IC50 (CYP2C9; [4])
COc1ccc(CNc2ncc(Cc3c[nH]c4ncc(C)cc34)cc2F)cn1 [Compound P-1562, [3-Fluoro-5-(5-methyl-1H-pyrrolo[2,3-b]pyridin-3-ylmethyl)-pyridin-2-yl]-(6-methoxy-pyridin-3-ylmethyl)-amine] | <20 | < 0.1 µM | < 0.1 µM | > 10 µM | > 10 µM | < 5 µM | > 10 µM | 5 to 10 µM | 5 to 10 µM |  |  |  |  |  | 
COc1ncc(F)cc1CNc1ccc(Cc2c[nH]c3ncc(NC(C)=O)cc23)c(F)n1 [Compound P-1669, N-(3-{2-fluoro-6-[(5-fluoro-2-methoxy-pyridin-3-ylmethyl)-amino]-pyridin-3-ylmethyl}-1H-pyrrolo[2,3-b]pyridin-5-yl)-acetamide] |  |  |  | > 10 µM | > 10 µM | < 5 µM | > 10 µM | 5 to 10 µM |  |  |  |  |  |  | 
COc1cnc2[nH]cc(Cc3ccc(NCc4cncc(F)c4)nc3F)c2c1 [Compound P-2028, [6-Fluoro-5-(5-methoxy-1H-pyrrolo[2,3-b]pyridin-3-ylmethyl)-pyridin-2-yl]-(5-fluoro-pyridin-3-ylmethyl)-amine] | >20 | < 0.1 µM | > 0.1 µM | > 10 µM | > 10 µM | < 5 µM |  |  |  | < 5 µM | < 5 µM |  |  |  | 
COc1ccc(CNc2ncc(Cc3c[nH]c4ncc(Cl)cc34)cn2)cn1 [Compound P-2038, [5-(5-Chloro-1H-pyrrolo[2,3-b]pyridin-3-ylmethyl)-pyrimidin-2-yl]-(6-methoxy-pyridin-3-ylmethyl)-amine] | <20 | < 0.1 µM | > 0.1 µM | > 10 µM | > 10 µM |  |  |  |  | > 10 µM | > 10 µM | < 0.1 µM | 5 to 10 µM |  | 
COc1ncccc1CNc1ccc(Cc2c[nH]c3ncccc23)c(F)n1 [Compound P-2045, [6-Fluoro-5-(1H-pyrrolo[2,3-b]pyridin-3-ylmethyl)-pyridin-2-yl]-(2-methoxy-pyridin-3-ylmethyl)-amine] | >20 | < 0.1 µM | > 0.1 µM | > 10 µM |  | > 10 µM |  | 5 to 10 µM |  |  | > 10 µM |  |  | 5 to 10 µM | 
COc1ncccc1CNc1ccc(Cc2c[nH]c3ncc(C)cc23)c(F)n1 [Compound P-2052, [6-Fluoro-5-(5-methyl-1H-pyrrolo[2,3-b]pyridin-3-ylmethyl)-pyridin-2-yl]-(2-methoxy-pyridin-3-ylmethyl)-amine] | >20 | < 0.1 µM | > 0.1 µM | > 10 µM |  |  | > 10 µM | 5 to 10 µM | 5 to 10 µM |  |  |  | 5 to 10 µM |  | 
COc1ncc(F)cc1CNc1ncc(Cc2c[nH]c3ncc(Cl)cc23)cn1 [Compound P-2064, [5-(5-Chloro-1H-pyrrolo[2,3-b]pyridin-3-ylmethyl)-pyrimidin-2-yl]-(5-fluoro-2-methoxy-pyridin-3-ylmethyl)-amine] | >20 | < 0.1 µM | > 0.1 µM | > 10 µM |  |  | > 10 µM |  |  | > 10 µM | > 10 µM |  | 5 to 10 µM |  | 
COc1cc(CNc2ccc(Cc3c[nH]c4ncc(C)cc34)c(F)n2)c(F)cn1 [Compound P-2071, (5-Fluoro-2-methoxy-pyridin-4-ylmethyl)-[6-fluoro-5-(5-methyl-1H-pyrrolo[2,3-b]pyridin-3-ylmethyl)-pyridin-2-yl]-amine] | >20 | < 0.1 µM | > 0.1 µM | > 10 µM | > 10 µM |  |  | 5 to 10 µM | 5 to 10 µM |  |  |  | 5 to 10 µM |  | 
COc1ccc(CNc2ccc(Cc3c[nH]c4ncc(C)cc34)c(F)n2)c(OC)n1 [Compound P-2097, (2,6-Dimethoxy-pyridin-3-ylmethyl)-[6-fluoro-5-(5-methyl-1H-pyrrolo[2,3-b]pyridin-3-ylmethyl)-pyridin-2-yl]-amine] | >20 | < 0.1 µM | > 0.1 µM | > 10 µM |  |  | > 10 µM | 5 to 10 µM | 5 to 10 µM |  |  |  |  |  | < 5 µM
Cc1ccc(CNc2ccc(Cc3c[nH]c4ncc(C)cc34)c(F)n2)nc1 [Compound P-2131, [6-Fluoro-5-(5-methyl-1H-pyrrolo[2,3-b]pyridin-3-ylmethyl)-pyridin-2-yl]-(5-methyl-pyridin-2-ylmethyl)-amine] | >20 | < 0.1 µM | > 0.1 µM | > 10 µM |  |  |  |  |  | < 5 µM | > 10 µM |  |  | 5 to 10 µM | < 5 µM
Cn1cc(F)cc(CNc2ncc(Cc3c[nH]c4ncc(Cl)cc34)cn2)c1=O [Compound P-2157, 3-{[5-(5-Chloro-1H-pyrrolo[2,3-b]pyridin-3-ylmethyl)-pyrimidin-2-ylamino]-methyl}-5-fluoro-1-methyl-1H-pyridin-2-one] | <20 | > 0.1 µM | > 0.1 µM | > 10 µM |  |  | > 10 µM | 5 to 10 µM |  |  | > 10 µM |  |  |  | > 10 µM
Fc1cc(Cc2c[nH]c3ncc(Cl)cc23)cnc1NCc1ccc(C(F)(F)F)nc1 [Compound P-2172, [5-(5-Chloro-1H-pyrrolo[2,3-b]pyridin-3-ylmethyl)-3-fluoro-pyridin-2-yl]-(6-trifluoromethyl-pyridin-3-ylmethyl)-amine] | <20 | < 0.1 µM | < 0.1 µM | > 10 µM | < 5 µM |  | > 10 µM |  |  | > 10 µM |  |  | 5 to 10 µM |  | 
CCS(=O)(=O)Nc1ccccc1CNc1ccc(Cc2c[nH]c3ncc(C)cc23)c(F)n1 [Compound P-2198, Ethanesulfonic acid (2-{[6-fluoro-5-(5-methyl-1H-pyrrolo[2,3-b]pyridin-3-ylmethyl)-pyridin-2-ylamino]-methyl}-phenyl)-amide] | <20 | < 0.1 µM | > 0.1 µM | > 10 µM | < 5 µM |  | > 10 µM |  |  | < 5 µM |  |  | 5 to 10 µM |  | 
